Like-named read-outs stand apart in the source and are kept apart here.
System: MDD patients carrying the indicated conditions
Settings: with SSRI
Method: Folate levels are classified as either low (<=2.5 ng/ml) or normal; and homocysteine levels as either normal or elevated (>=[…]). The presence or absence of at least one […] allele for the MTHFR gene are entered as a dichotomous variable (present or absent). […] Using folate as an example predicator, the presence or absence of a low serum-folate level along with treatment assignment can be entered in a 2×2, factorial ANOVA, using depression improvement scores (baseline minus endpoint HAM-D-17 scores) as the dependant variable. […] Similar analyses (i.e. separate 2×2 ANOVA's) can be performed substituting the presence of low folate levels for the presence of other predictors as described herein. Similarly, the effect of other predictors can be indicated by the interaction term representing the potential modulating influence of those variables.
Particularly, specific genetic and biomarkers that were assessed include the following: • (a) BMI calculation of at least about 30 kg/m^2; • (b) an expression ratio of SAM/SAH smaller than 2.8 (e.g., 2.71) as measured in a plasma sample; • (c) a level of 4-HNE no less than 3.28 μg/mL (as measured in a plasma sample); • (d) presence of rare variants CT or TT at position 677 of SEQ ID NO: 1 corresponding to a portion of a genomic nucleic acid sequence of methylenetetrahydrofolate reductase (MTHFR) (abbreviated as “MTHFR 677” below); • (e) presence of rare variants AG or GG at position 2756 of SEQ ID NO: 2 corresponding to a portion of genomic nucleic acid sequence of methionine synthase (MTR) (abbreviated as “MTR 2756” below); and • (f) presence of rare variants AG or GG at position 66 of SEQ ID NO: 3 corresponding to a portion of genomic nucleic acid sequence of methionine synthase reductase (MTRR) (abbreviated as “MTRR 66” below).
The efficacy effect is determined by measuring the mean change in the HAMD-17 score and HAMD-28 score by the end of Phase I and Phase II, as compared to the baseline.

[1] = Phase II, interaction of BMI with the treatment
[2] = Phase II, interaction of HNE-his with the treatment
[3] = Phase II, interaction of SAM/SAH with the treatment
[4] = Pooled phases, 25 =< BMI < 30 kg/m^2 (18, 10)
[5] = Pooled phases, BMI < 25 (14, 7)

Structure (SMILES): CN1c2c(nc(N)[nH]c2=O)NC[C@@H]1CNc1ccc(C(=O)N[C@@H](CCC(=O)O)C(=O)O)cc1 [6(S)-5-MTHF, 6(S)-5-methyltetrahydrofolate]
- Effect, change in HAMD-28 score (Phase II, MTR 2756 AA and MTRR 66 AA): −8.000
- Effect, change in HAMD-17 score (Phase II, MTR 2756 AA and SAM/SAH >= median (24,12)): 1.971
- Effect, change in HAMD-28 score (Phase II, MTR 2756 AA and SAM/SAH >= median): 2.000
- Effect, change in HAMD-28 score (Phase II, MTR 2756 AA): −0.446
- Effect, change in HAMD-17 score (Phase II, MTR 2756 AG or GG and BMI >= 30 kg/m^2 (10,5)): −12.167
- Effect, change in HAMD-28 score (Phase II, MTR 2756 AG or GG and BMI >= 30 kg/m^2): −13.000
- Effect, change in HAMD-17 score (Phase II, MTR 2756 AG or GG and HNE-His >= median (13,7)): −8.417
- Effect, change in HAMD-28 score (Phase II, MTR 2756 AG or GG and HNE-His >= median = 3.28 (plasma sample)): −9.500
- Effect, change in HAMD-17 score (Phase II, MTR 2756 AG or GG and MTRR 66 AG or GG (15,7)): −4.667
- Effect, change in HAMD-17 score (Phase II, MTR 2756 AG or GG and MTRR 66 AG or GG and BMI >= 30 kg/m^2 (8,4)): −11.000
- Effect, change in HAMD-28 score (Phase II, MTR 2756 AG or GG and MTRR 66 AG or GG and BMI >= 30 kg/m^2): −12.000
- Effect, change in HAMD-17 score (Phase II, MTR 2756 AG or GG and MTRR 66 AG or GG and HNE-His >= median (10,4)): −11.000
- Effect, change in HAMD-28 score (Phase II, MTR 2756 AG or GG and MTRR 66 AG or GG and HNE-His >= median): −12.000
- Effect, change in HAMD-17 score (Phase II, MTR 2756 AG or GG and MTRR 66 AG or GG and SAM/SAH < median (8,3)): −6.500
- Effect, change in HAMD-28 score (Phase II, MTR 2756 AG or GG and MTRR 66 AG or GG and SAM/SAH < median = 2.71 (plasma sample)): −10.500
- Effect, change in HAMD-28 score (Phase II, MTR 2756 AG or GG and MTRR 66 AG or GG): −6.583
- Effect, change in HAMD-17 score (Phase II, MTR 2756 AG or GG and SAM/SAH < median (10,4)): −2.500
- Effect, change in HAMD-28 score (Phase II, MTR 2756 AG or GG and SAM/SAH < median = 2.71 (plasma sample)): −7.500
- Effect, change in HAMD-17 score (Phase II, MTR 2756 AG/GG (20,11)): −3.600
- Effect, change in HAMD-28 score (Phase II, MTR 2756 AG/GG): −5.300
- Effect, change in HAMD-17 score (Phase II, MTRR 66 AA and HNE-His < median (8,5)): −1.667
- Effect, change in HAMD-28 score (Phase II, MTRR 66 AA and HNE-His < median = 3.28 (plasma sample)): −2.000
- Effect, change in HAMD-17 score (Phase II, MTRR 66 AA and SAM/SAH >= median (9,6)): −3.000
- Effect, change in HAMD-28 score (Phase II, MTRR 66 AA and SAM/SAH >= median): −3.333
- Effect, change in HAMD-17 score (Phase II, MTRR 66 AG or GG and HNE-His >= median (24,11)): −3.500
- Effect, change in HAMD-28 score (Phase II, MTRR 66 AG or GG and HNE-His >= median): −4.071
- Effect, change in HAMD-17 score (Phase II, MTRR 66 AG or GG and SAM/SAH < median (24,10)): −6.190
- Effect, change in HAMD-28 score (Phase II, MTRR 66 AG or GG and SAM/SAH < median = 2.71 (plasma sample)): −7.381
- Effect, change in HAMD-17 score (Phase II, SAM/SAH < median and HNE-His >= median (19,7)): −9.000
- Effect, change in HAMD-28 score (Phase II, SAM/SAH < median and HNE-His >= median): −12.000
- Effect, change in HAMD-17 score (Phase II, SAM/SAH >= median and HNE-His < median (18,8)): 4.000
- Effect, change in HAMD-28 score (Phase II, SAM/SAH >= median and HNE-His < median): 4.500
- Effect, change in HAMD-17 score: BMI*treat [1]: 0.113
- Effect, change in HAMD-28 score: BMI*treat [1]: 0.082
- Effect, change in HAMD-17 score: HNE-his*treat [2]: 2.027
- Effect, change in HAMD-28 score: HNE-his*treat [2]: 2.362
- Effect, change in HAMD-17 score: SAM/SAH*treat [3]: 1.483
- Effect, change in HAMD-28 score: SAM/SAH*treat (last line) [3]: 1.806
- Effect, change in HAMD-17 score: baseHAMD-17*treat (Phase II, interaction of base HAMD-17 with the treatment): −0.249
- Effect, change in HAMD-28 score: SAM/SAH*treat (first line under HAMD28) (Phase II, interaction with the treatment): 1.483
- Effect, change in HAMD-17 score [4]: 3.331
- Effect, change in HAMD-28 score [4]: 2.054
- Effect, change in HAMD-17 score [5]: −1.248
- Effect, change in HAMD-28 score [5]: −1.018
- Effect, change in HAMD-17 score (Pooled phases, BMI < 30 kg/m^2 and HNE-His < median (19, 9)): 4.738
- Effect, change in HAMD-28 score (Pooled phases, BMI < 30 kg/m^2 and HNE-His < median): 4.253
- Effect, change in HAMD-17 score (Pooled phases, BMI < 30 kg/m^2 and SAM/SAH >= median (16,8)): 2.583
- Effect, change in HAMD-28 score (Pooled phases, BMI < 30 kg/m^2 and SAM/SAH >= median): 2.906
- Effect, change in HAMD-28 score (Pooled phases, BMI >= 30 kg/m^2 (40,21)): −4.660
- Effect, change in HAMD-17 score (Pooled phases, BMI >= 30 kg/m^2 and HNE-His >= median (23, 11)): −5.420
- Effect, change in HAMD-17 score (Pooled phases, BMI >= 30 kg/m^2 and SAM/SAH < median (21,9)): −7.302
- Effect, change in HAMD-28 score (Pooled phases, BMI >= 30 kg/m^2 and SAM/SAH < median = 2.71 (plasma sample)): −7.572
- Effect, change in HAMD-17 score (Pooled phases, MTHFR 677 CC and BMI < 30 kg/m^2 (17,8)): 1.356
- Effect, change in HAMD-28 score (Pooled phases, MTHFR 677 CC and BMI < 30 kg/m^2): −0.234
- Effect, change in HAMD-17 score (Pooled phases, MTHFR 677 CC and HNE-His < median (20,11)): −1.050
- Effect, change in HAMD-28 score (Pooled phases, MTHFR 677 CC and HNE-His < median = 3.28 (plasma sample)): −1.340

Source: patent US9540691B2, “Assays and methods for selecting a treatment regimen for a subject with depression” (THE GENERAL HOSPITAL CORPORATION, priority 2011, dated 2017)
